Reference: patent US20140242093A1, “METHODS AND COMPOSITIONS FOR MODULATING THE INNATE IMMUNE RESPONSE AND/OR MYOGENESIS IN A MAMMALIAN SUBJECT” (FRED HUTCHINSON CANCER RESEARCH CENTER, priority 2011, published 2014)

Test system: control human primary myoblasts
Test: Expression microarray of primary myoblasts transduced with lentivirus carrying DUX4-fl, DUX4-s or GFP
Experimental: Primary human myoblasts were collected and cultured as previously described (Snider et al., 2010). Primary myoblasts were maintained at or below 70% confluency for proliferation. For differentiation, cells were allowed to reach 95-100% confluency in growth medium. Once confluency was reached, the cells were changed to differentiation medium (F10 media supplemented with 1% horse serum, 10 μg/mL insulin, and 10 μg/mL transferrin, penicillin/streptomycin) and maintained for 4 days. Human RD cells were grown in DMEM in 10% bovine calf serum (Hyclone) and penicillin/streptomycin. The primary myoblasts were transduced with lentivirus carrying DUX-fl, DUX4- or GFP (MOI=15).
Expression microarrays were performed on the transduced cells at 24 hours after transduction as follows. […] Samples were analyzed by Illumina Human Whole Genome microarrays. Probe intensities were corrected, normalized, and summarized by the Lumi package of Bioconductor (Du et al., 2008). Differentially expressed genes were identified by the LIMMA package of Bioconductor (Wettenhall and Smyth, 2004). Gene set enrichment analysis (GSEA) was performed using the Bioconductor GOstats package (Falcon and Gentleman, 2007).

DUX4-fl: full-length DUX4 protein (SEQ ID NO:110), expressed from lentiviral or pCS2 vectors or in vitro translated
GTF2F1 expression fc (Refseq NM_002096.1): 3.208
HLA-A fc (Refseq NM_002116.5): −1.08
HMOX1 expression fc (Refseq NM_002133.1, cultured human skeletal muscle): −1.924
HOXB2 expression fc (Refseq NM_002145.3): 2.202
HSPA6 expression fc (Refseq NM_002155.3): 1.994
ID2 expression fc (Refseq NM_002166.4): 2.336
fc of IFNB1 (expression array) (Refseq NM_002176.2): −0.3894
INSM1 expression fc (Refseq NM_002196.2): 1.801
IRF1 expression fc (Refseq NM_002198.1, cultured human skeletal muscle): −2.643
ISG20 expression fc (Refseq NM_002201.4, cultured human skeletal muscle): −2.94
fc of ITGA3 (expression array) (Refseq NM_002204.1): −1.041
fc of JUNB (expression array) (Refseq NM_002229.2): −1.063
JUP expression fc (Refseq NM_002230.1): 3.172
KPNA2 expression fc (Refseq NM_002266.2): 2.416
fc of LAMC1 (expression array) (Refseq NM_002293.2): −0.5108
fc of LSS (expression array) (Refseq NM_002340.3): −1.045
LTBR fc (Refseq NM_002342.1): −1.155
LUM fc (Refseq NM_002345.3): −1.126
LY6E expression fc (Refseq NM_002346.1, cultured human skeletal muscle): −3.251
fc of MDM2 (expression array) (Refseq NM_002392.2): −0.588
MX1 expression fc (Refseq NM_002462.2, cultured human skeletal muscle): −5.675
MX2 expression fc (Refseq NM_002463.1, cultured human skeletal muscle): −4.066
fc of MYF6 (expression array) (Refseq NM_002469.1): −1.042
MYOD1 fc (Refseq NM_002478.4): −1.113
NFYA expression fc (Refseq NM_002505.3): 2.335
OAS2 expression fc (Refseq NM_002535.2, cultured human skeletal muscle): −2.711
ODC1 expression fc (Refseq NM_002539.1): 3.657
PDE4B fc (Refseq NM_002600.3): −1.143
PFKP fc (Refseq NM_002627.3): −1.106
PIM1 expression fc (Refseq NM_002648.2): 2.215
EXOSC10 expression fc (Refseq NM_002685.2): 1.937
PNN expression fc (Refseq NM_002687.3): 1.949
PRKD1 fc (Refseq NM_002742.2): −1.099
PSMB9 expression fc (Refseq NM_002800.4, cultured human skeletal muscle): −3.137
PTX3 expression fc (Refseq NM_002852.2, cultured human skeletal muscle): −2.744
PYGB expression fc (Refseq NM_002862.3, cultured human skeletal muscle): −2.046
fc of RAB13 (expression array) (Refseq NM_002870.2): −1.032
fc of RBMS1 (expression array) (Refseq NM_002897.3): −0.6159
fc of RBMS2 (expression array) (Refseq NM_002898.2): −0.772
RXRA fc (Refseq NM_002957.3): −1.132
CCL2 expression fc (Refseq NM_002982.3, cultured human skeletal muscle): −2.681
CCL5 expression fc (Refseq NM_002985.2, cultured human skeletal muscle): −2.528
CXCL6 expression fc (Refseq NM_002993.2, cultured human skeletal muscle): −1.994
CXCL5 expression fc (Refseq NM_002994.3, cultured human skeletal muscle): −2.469
SLC2A5 expression fc (Refseq NM_003039.1, cultured human skeletal muscle): −1.958
SLC22A4 fc (Refseq NM_003059.2): −1.134
SNAI2 expression fc (Refseq NM_003068.3, cultured human skeletal muscle): −2.095
fc of SMARCD3 (expression array) (Refseq NM_003078.3): −1.022
SNRNP70 expression fc (Refseq NM_003089.4): 1.885
SOX4 expression fc (Refseq NM_003107.2): 1.809
SPG7 fc (Refseq NM_003119.2): −1.113
SRP19 expression fc (Refseq NM_003135.1): 1.866
fc of STRN (expression array) (Refseq NM_003162.2): −0.2348
THBS1 fc (Refseq NM_003246.2): −1.092
UBA7 expression fc (Refseq NM_003335.2, cultured human skeletal muscle): −2.561
fc of UGCG (expression array) (Refseq NM_003358.1): −0.8891
WEE1 fc (Refseq NM_003390.2): −1.099
WNT5A fc (Refseq NM_003392.3): −1.103
fc of XPO1 (expression array) (Refseq NM_003400.3): −1.04
fc of ZFP36 (expression array) (Refseq NM_003407.2): −1.044
ZKSCAN1 fc (Refseq NM_003439.1): −1.082
fc of Cxorfl2 (expression array) (Refseq NM_003492.1): −1.02
fc of TAGLN2 (expression array) (Refseq NM_003564.1): −1.002
fc of EEA1 (expression array) (Refseq NM_003566.2): −0.963
IFITM1 expression fc (Refseq NM_003641.3, cultured human skeletal muscle): −6.118
fc of VAMP8 (expression array) (Refseq NM_003761.2): −1.02
fc of VAMP4 (expression array) (Refseq NM_003762.3): −1.018
RNGTT expression fc (Refseq NM_003800.3): 2.018
RIPK1 fc (Refseq NM_003804.3): −1.103
TNFSF10 fc (Refseq NM_003810.2): −1.127
TNFRSF14 expression fc (Refseq NM_003820.2, cultured human skeletal muscle): −2.72
fc of RIOK3 (expression array) (Refseq NM_003831.2): −0.5229
TNFRSF10A fc (Refseq NM_003844.2): −1.126
PEX11B fc (Refseq NM_003846.1): −1.142
CES2 expression fc (Refseq NM_003869.4, cultured human skeletal muscle): −2.043
CFLAR expression fc (Refseq NM_003879.3, cultured human skeletal muscle): −1.94
fc of ASAP2 (expression array) (Refseq NM_003887.2): −1.028
CCNA1 expression fc (Refseq NM_003914.2): 7.526
fc of USP13 (expression array) (Refseq NM_003940.2): −0.08799
NPR2 fc (Refseq NM_003995.3): −1.166
fc of OSMR (expression array) (Refseq NM_003999.1): −0.7417
